Among the data in ChEMBL document CHEMBL1153613, “Synthesis and reactivity of novel gamma-phosphate modified ATP analogues” (Bioorg Med Chem Lett, 2009) are Activity values, retold here.

The source made the active and inactive calls. No cut-off for these calls is given here.

The target in this experiment is Cyclin-dependent kinase 2 (Homo sapiens) (UniProt P24941). The experiment in a line: Effect on wild type recombinant CDK2/cyclin E1 assessed as p27kip1 phosphorylation after 1 hr by immunoblot analysis. Background: In western blotting, separated proteins are transferred to a membrane and probed.

Consider `[N-]=[N+]=NCCOP(=O)(O)OP(=O)(O)OP(=O)(O)OC[C@H]1O[C@@H](n2cnc3c(N)ncnc32)[C@H](O)[C@@H]1O`, for which the result was Active.
On to `[N-]=[N+]=Nc1ccc(NP(=O)(O)OP(=O)(O)OP(=O)(O)OC[C@H]2O[C@@H](n3cnc4c(N)ncnc43)[C@H](O)[C@@H]2O)cc1`, for which the outcome was Active.
Next, `C#CCCCNP(=O)(O)OP(=O)(O)OP(=O)(O)OC[C@H]1O[C@@H](n2cnc3c(N)ncnc32)[C@H](O)[C@@H]1O`: “Active”.
Next, `[N-]=[N+]=NCCCCCCNP(=O)(O)OP(=O)(O)OP(=O)(O)OC[C@H]1O[C@@H](n2cnc3c(N)ncnc32)[C@H](O)[C@@H]1O`: “Active”.
Next, `C#CCNP(=O)(O)OP(=O)(O)OP(=O)(O)OC[C@H]1O[C@@H](n2cnc3c(N)ncnc32)[C@H](O)[C@@H]1O`: “Active”; `C#CCCCOP(=O)(O)OP(=O)(O)OP(=O)(O)OC[C@H]1O[C@@H](n2cnc3c(N)ncnc32)[C@H](O)[C@@H]1O`: “Active”; `C=CCNP(=O)(O)OP(=O)(O)OP(=O)(O)OC[C@H]1O[C@@H](n2cnc3c(N)ncnc32)[C@H](O)[C@@H]1O`: “Active”.
With `[N-]=[N+]=NCCOCCOCCOCCNP(=O)(O)OP(=O)(O)OP(=O)(O)OC[C@H]1O[C@@H](n2cnc3c(N)ncnc32)[C@H](O)[C@@H]1O`, the result was Active.
Next, `C#CCCNP(=O)(O)OP(=O)(O)OP(=O)(O)OC[C@H]1O[C@@H](n2cnc3c(N)ncnc32)[C@H](O)[C@@H]1O`: “Active”.
